# Measurements: PMC8228121, “Super-Cationic Peptide Dendrimers—Synthesis and Evaluation as Antimicrobial Agents” (Antibiotics, 2021)
# Read-outs that look alike come from different tables or passages of the source. Bridge positions count the residues as written; N and C are the ends. Square brackets hold non-standard residues; d marks the D form. Side chains are listed from the residue outwards. Peptide text beside a SMILES is read from it. I, II: the chains in the order shown. Orn = NCCC[C@H](N)C(=O)O
# Tests used:
# MTT cytotoxicity assay = format: cell-based, human; conditions: human, HepG2 cells, HepG2, 24 h exposure
# Experimental: (§4) Cell viability was evaluated using the colorimetric MTT assay [21]. Human hepatocarcinoma (HepG2) cells and human embryonic kidney 293 (HEK-293) cells used in the drug toxicity assays were obtained from Cellonex (Johannesburg, South Africa). Viable HepG2 and HEK293 cells (20,000 cells/well) were seeded into a 96-well microtiter plate (200 µL) and allowed to attach overnight. The cells were exposed to varying concentrations of the peptides for 24 h. After removal of the treatment medium, 20 µL of MTT salt solution (5 mg/mL in 0.1M phosphate buffer saline (PBS)) and 100 µL of complete cell culture medium (CCM) were added to each well. After a 4 h (37 °C) incubation, the MTT salt solution was discarded and 100 μL of dimethyl sulphoxide (DMSO) were added to each well (1 h, 37 °C). The optical density of the solubilized formazan product was measured at 570 nm (reference λ of 690 nm) using a Bio-tek μQuant spectrophotometer (Winooski, VT, USA). […] GraphPad Prism (V5) (La Jolla, CA, USA) was used to obtain the half maximum inhibitory concentration (IC50) for each compound.
# P. aeruginosa [1] = assay: Effect on bacterial growth curves; format: cell-based
# Experimental: (§1) The study of the growth dynamic of the S. aureus, E. coli and P.aeruginosa strains against CAMPDs were assayed with a starting inoculum of 10^6–10^8 CFU/mL in a 10 mL specific falcon tube. The experiment was performed by a real-time reverse-spin bioreactor RTS-1 (Biosan SIA, Riga, Latvia) that applies non-invasive, mechanically driven rotation; thus, the cell suspension is mixed efficiently, mixing and oxygening the culture at 37 °C. Cell growth kinetics were recorded non-invasively in real time from data obtained from a near-infrared optical system, every 15 min.
# S. aureus ATCC 29213 = assay: microbe, parasite or virus in culture; format: cell-based, Staphylococcus aureus
# Experimental: (§2) Clinical isolates of CRE, MRSA and VRE were obtained from Lancet Laboratories, Durban, South Africa, with approval BE394/15 from the Biomedical Research Ethical Committee of the University of KwaZulu-Natal. Five reference strains of bacteria, namely Escherichia coli ATCC 25922, Pseudomonas aeruginosa ATCC 27853, Enterococcus faecium ATCC 35667, Staphylococcus aureus ATCC 29213 and Bacillus subtilis ATCC 6051 were supplied by the American Type Culture Collection (ATCC).
# (§3) MIC values were determined by the broth microdilution method and the significance of the values obtained was interpreted following the guidelines of the Clinical and Laboratory Standards for Antimicrobial Susceptibility Testing.. The effect of human serum on the antimicrobial effect of the molecules tested was determined in a similar way to the MIC method used above in a solution of 50% human serum plus Mueller–Hinton broth.
# [2] = system: MRSA (methicillin-resistant S. aureus) isolates; assay: microbe, parasite or virus in culture; format: cell-based; conditions: methicillin-resistant ) isolates
# Experimental: as §2, §3
# P. aeruginosa ATCC 27853 = assay: microbe, parasite or virus in culture; format: cell-based, Pseudomonas aeruginosa
# Experimental: as §2, §3
# E. coli ATCC 25822 = assay: microbe, parasite or virus in culture; format: cell-based, Escherichia coli
# Experimental: as §2, §3
# in vitro = conditions: human
# Experimental: as §4
# E. faecium ATCC 35667 = assay: microbe, parasite or virus in culture; format: cell-based, Enterococcus faecium
# Experimental: as §2, §3
# B. subtilis ATCC 6051 = assay: microbe, parasite or virus in culture; format: cell-based, Bacillus subtilis
# Experimental: as §2, §3
# P. aeruginosa [3] = assay: Time–kill curves; format: cell-based
# Experimental: Killing curve assays were performed with a starting inoculum of 6 × 10^6 CFU/mL. […] Antimicrobials were added to 5 mL of bacteria in the exponential phase of growth and incubated at 37 °C with shaking. Samples were obtained aseptically at 0, 1, 2, 4, 6 and 24 h, diluted in Ringer 1/4 and plated on TSA for colony counting. The response of microbial strains to a single antimicrobial was determined by lowering logarithms of viable bacteria. In accordance with Lora-Tamayo et al., an antimicrobial was considered active when a reduction of ≥1 log10 relative to the initial inoculum was observed.
# E. coli = assay: Effect on bacterial growth curves; format: cell-based; conditions: irrespective of concentration (MIC, ½ MIC and ¼ MIC)
# Experimental: as §1
# S. aureus = assay: Effect on bacterial growth curves; format: cell-based; conditions: at MIC, ½ MIC and ¼ MIC
# Experimental: as §1
# CRE, E. coli isolates = assay: microbe, parasite or virus in culture; format: cell-based; conditions: Escherichia coli
# Experimental: as §2, §3
# HepG2 cells = assay: MTT cytotoxicity assay; format: cell-based, human; conditions: HepG2, range of concentrations tested
# Experimental: as §4
# Experimental for HEK293 cells: as §4
MIC (S. aureus ATCC 29213; ATCC 29213) [µg/mL],MIC (P. aeruginosa ATCC 27853; ATCC 27853) [µg/mL],MIC (E. coli ATCC 25822; ATCC 25822) [µg/mL],MIC (E. faecium ATCC 35667; ATCC 35667) [µg/mL],MIC (B. subtilis ATCC 6051; ATCC 6051) [µg/mL],SMILES,IC50 at 24 h (MTT cytotoxicity assay) [µg/mL],effect on growth curve (P. aeruginosa [1]; at ½ MIC or ¼ MIC),MBC (S. aureus ATCC 29213; ATCC 29213) [µg/mL],MIC [2] [µg/mL],MBC (P. aeruginosa ATCC 27853; ATCC 27853) [µg/mL],MBC (E. coli ATCC 25822; ATCC 25822) [µg/mL],IC50 at 24 h (in vitro) [µg/mL],MBC (E. faecium ATCC 35667; ATCC 35667) [µg/mL],MBC (B. subtilis ATCC 6051; ATCC 6051) [µg/mL],time–kill: effect on bacterial population (P. aeruginosa [3]; at MIC),time–kill: effect on bacterial population (P. aeruginosa [3]; at ¼ MIC),time–kill: effect on bacterial population (P. aeruginosa [3]; at ½ MIC),effect on growth curve (E. coli),effect on growth curve (S. aureus),also measured
32,8 to 16,16,32,8,"CC(C)C[C@H](NC(=O)[C@H](CC(C)C)NC(=O)[C@H](CCCCN)NC(=O)[C@H](CC(C)C)NC(=O)[C@H](CC(C)C)NC(=O)[C@H](CCCCNC(=O)[C@H](CCCCN)NC(=O)[C@H](CC(C)C)NC(=O)[C@H](CCCCN)NC(=O)[C@H](CCCCNC(=O)[C@H](CCCCN)NC(=O)[C@H](CC(C)C)NC(=O)[C@@H](N)CCCCN)NC(=O)[C@H](CCCCN)NC(=O)[C@H](CC(C)C)NC(=O)[C@@H](N)CCCCN)NC(=O)[C@H](CCCCN)NC(=O)[C@H](CC(C)C)NC(=O)[C@H](CCCCN)NC(=O)[C@H](CCCCNC(=O)[C@H](CCCCN)NC(=O)[C@H](CC(C)C)NC(=O)[C@@H](N)CCCCN)NC(=O)[C@H](CCCCN)NC(=O)[C@H](CC(C)C)NC(=O)[C@@H](N)CCCCN)C(N)=O [G2KLK-L2KL2, (KLK)4(KKLK)2KLLKLL-NH2] (I: H-KLKK([Lys-Leu-Lys])KLKKLLKLL-NH2 / II: H-KLKK([Lys-Leu-Lys])KLK; amide I:8-II:C)",124,less capacity to delay growth,32,64,16,32,116,32,8,,,,,,
,,,,,"C[C@@H](O)[C@H]1C(=O)N2C(C(=O)O)=C(S[C@@H]3CN[C@H](C(=O)N(C)C)C3)[C@H](C)[C@H]12 [Meropenem, reference compound]",,,,,,,,,,,,,,,"MIC (S. aureus ATCC 29213; Staphylococcus aureus, ATCC29213, S. aureus ATCC 29213, read-out: MIC): 0.25 µg/mL; MIC (CRE, E. coli isolates; CRE E. coli isolate IMP JAP): 8 µg/mL; MIC (CRE, E. coli isolates; CRE E. coli isolate KPC L2l): 16 µg/mL; MIC (CRE, E. coli isolates; CRE E. coli isolate NDM4-FEK): > 32 µg/mL; MIC (CRE, E. coli isolates; CRE E. coli isolate OXA-48 501): 2 µg/mL; MIC (CRE, E. coli isolates; CRE E. coli isolate VIM-1 BM-12): > 32 µg/mL; MIC (P. aeruginosa ATCC 27853; Pseudomonas aeruginosa, ATCC27853, P. aeruginosa ATCC 27853, read-out: MIC): 1 µg/mL; MIC (E. coli ATCC 25822; Escherichia coli, ATCC25822): 0.125 µg/mL; MIC (E. faecium ATCC 35667; Enterococcus faecium, ATCC35667, E. faecium ATCC 35667, read-out: MIC): < 0.25 µg/mL; MIC (B. subtilis ATCC 6051; Bacillus subtilis, ATCC6051, B. subtilis ATCC 6051, read-out: MIC): 0.062 µg/mL"
128,32,32,>128,64,"CC(C)C[C@H](NC(=O)[C@H](CC(C)C)NC(=O)[C@H](CCCCN)NC(=O)[C@H](CC(C)C)NC(=O)[C@H](CC(C)C)NC(=O)[C@H](CCCCNC(=O)[C@H](CCCCN)NC(=O)[C@H](CC(C)C)NC(=O)[C@@H](N)CCCCN)NC(=O)[C@H](CCCCN)NC(=O)[C@H](CC(C)C)NC(=O)[C@@H](N)CCCCN)C(N)=O [G1KLK-L2KL2, (KLK)2KLLKLL-NH2] (H-KLKK([Lys-Leu-Lys])LLKLL-NH2)",,,128,,32,32,,,64,,,,,,toxicity (MTT) (HepG2 cells): did not show toxicity at the range of concentrations tested
32,64,64,16,16,"CC(C)C[C@H](NC(=O)[C@H](CC(C)C)NC(=O)[C@H](CCCNC(=N)N)NC(=O)[C@H](CC(C)C)NC(=O)[C@H](CC(C)C)NC(=O)[C@H](CCCCNC(=O)[C@H](CCCNC(=N)N)NC(=O)[C@H](CC(C)C)NC(=O)[C@H](CCCNC(=N)N)NC(=O)[C@H](CCCCNC(=O)[C@H](CCCNC(=N)N)NC(=O)[C@H](CC(C)C)NC(=O)[C@@H](N)CCCNC(=N)N)NC(=O)[C@H](CCCNC(=N)N)NC(=O)[C@H](CC(C)C)NC(=O)[C@@H](N)CCCNC(=N)N)NC(=O)[C@H](CCCNC(=N)N)NC(=O)[C@H](CC(C)C)NC(=O)[C@H](CCCNC(=N)N)NC(=O)[C@H](CCCCNC(=O)[C@H](CCCNC(=N)N)NC(=O)[C@H](CC(C)C)NC(=O)[C@@H](N)CCCNC(=N)N)NC(=O)[C@H](CCCNC(=N)N)NC(=O)[C@H](CC(C)C)NC(=O)[C@@H](N)CCCNC(=N)N)C(N)=O [G2RLR-L2RL2, (RLR)4(KRLR)2KLLRLL-NH2] (I: H-RLRK([Arg-Leu-Arg])RLRKLLRLL-NH2 / II: H-RLRK([Arg-Leu-Arg])RLR; amide I:8-II:C)",102,,32,,64,64,67.4,16,16,reduced the bacterial population to almost zero and no regrowth was appreciated after 24 h,the bacterial population remained partially inhibited at the beginning of the exposure,reduced the bacterial population to almost zero and no regrowth was appreciated after 24 h,,,

SMILES,MIC (S. aureus ATCC 29213; ATCC 29213) [µg/mL],MIC (P. aeruginosa ATCC 27853; ATCC 27853) [µg/mL],MIC (E. coli ATCC 25822; ATCC 25822) [µg/mL],MIC (E. faecium ATCC 35667; ATCC 35667) [µg/mL],MIC (B. subtilis ATCC 6051; ATCC 6051) [µg/mL],IC50 at 24 h (MTT cytotoxicity assay) [µg/mL],effect on growth curve (P. aeruginosa [1]; at ½ MIC or ¼ MIC),MBC (S. aureus ATCC 29213; ATCC 29213) [µg/mL],MIC [2] [µg/mL],MBC (P. aeruginosa ATCC 27853; ATCC 27853) [µg/mL],MBC (E. coli ATCC 25822; ATCC 25822) [µg/mL],IC50 at 24 h (in vitro) [µg/mL],MBC (E. faecium ATCC 35667; ATCC 35667) [µg/mL],MBC (B. subtilis ATCC 6051; ATCC 6051) [µg/mL],time–kill: effect on bacterial population (P. aeruginosa [3]; at MIC),time–kill: effect on bacterial population (P. aeruginosa [3]; at ¼ MIC),time–kill: effect on bacterial population (P. aeruginosa [3]; at ½ MIC),effect on growth curve (E. coli),effect on growth curve (S. aureus),also measured
"CC(C)C[C@H](NC(=O)[C@H](CC(C)C)NC(=O)[C@H](CCCN)NC(=O)[C@H](CC(C)C)NC(=O)[C@H](CC(C)C)NC(=O)[C@H](CCCCNC(=O)[C@H](CCCN)NC(=O)[C@H](CC(C)C)NC(=O)[C@H](CCCN)NC(=O)[C@H](CCCCNC(=O)[C@H](CCCN)NC(=O)[C@H](CC(C)C)NC(=O)[C@@H](N)CCCN)NC(=O)[C@H](CCCN)NC(=O)[C@H](CC(C)C)NC(=O)[C@@H](N)CCCN)NC(=O)[C@H](CCCN)NC(=O)[C@H](CC(C)C)NC(=O)[C@H](CCCN)NC(=O)[C@H](CCCCNC(=O)[C@H](CCCN)NC(=O)[C@H](CC(C)C)NC(=O)[C@@H](N)CCCN)NC(=O)[C@H](CCCN)NC(=O)[C@H](CC(C)C)NC(=O)[C@@H](N)CCCN)C(N)=O [G2OLO-L2OL2, (OLO)4(KOLO)2KLLOLL-NH2] (I: H-[Orn]L[Orn]K([Orn-Leu-Orn])[Orn]L[Orn]KLL[Orn]LL-NH2 / II: H-[Orn]L[Orn]K([Orn-Leu-Orn])[Orn]L[Orn]; amide I:8-II:C)",32,32,32,8,32,141,,32,64,32,32,199,8,32,killed all bacteria within the first hour of exposure and regrowth was observed after the second hour,the bacterial population was not totally eliminated,the bacterial population was not totally eliminated,abolished bacterial growth,negligible,effect on growth curve (P. aeruginosa [1]; at the MIC): abolished growth; delay in growth (P. aeruginosa [1]; at ¼ MIC): ~2 h; delay in growth (P. aeruginosa [1]; at ½ MIC): 10 h
"CC(C)C[C@H](NC(=O)[C@H](CC(C)C)NC(=O)[C@H](CCCN)NC(=O)[C@H](CC(C)C)NC(=O)[C@H](CC(C)C)NC(=O)[C@H](CCCCNC(=O)[C@H](CCCN)NC(=O)[C@H](CC(C)C)NC(=O)[C@@H](N)CCCN)NC(=O)[C@H](CCCN)NC(=O)[C@H](CC(C)C)NC(=O)[C@@H](N)CCCN)C(N)=O [G1OLO-L2OL2, (OLO)2KLLOLL-NH2] (H-[Orn]L[Orn]K([Orn-Leu-Orn])LL[Orn]LL-NH2)",64,16,8,16,32,,no effect,64,64,16,8,470,16,32,,,,abolished bacterial growth,negligible,"time–kill: effect on bacterial population (P. aeruginosa [3]; any concentration tested (MIC, ½ MIC, ¼ MIC)): had no effect at any concentration tested; delay in growth (P. aeruginosa [1]; at the MIC): approximately 6 h; toxicity (MTT) (HEK293 cells): did not show toxicity"
